Test results as given in a melting point compilation (Tetko et al.; mined from patent text by program, amines drawn as free bases though some values may be those of a salt).

| SMILES | melting point |
| --- | --- |
| O=C(O)c1cccc(CN2C(=O)C3(COc4cc5c(cc43)CCO5)c3ccccc32)c1 (stereo not drawn) | > 250 °C |
| Oc1cc(C(F)(F)F)nn1-c1ccc(Cl)cn1 | 58 to 59 °C |
| Nc1nc2c(sc(=O)n2C2CC(O)C(CO)O2)c(=O)[nH]1 (stereo not drawn) | > 170 °C |
| CCOC(=O)C1(C(=O)OCC)CCC2(CC1)c1cc(OCC)c(OCC)cc1CCN2C(=O)OCc1ccccc1 | 88.4 to 89.1 °C |
| Cc1cn(C2CCCCC2)c(=O)[nH]c1=S | 177 to 178 °C |
| CC(=O)SCC(Cc1ccccc1)C(=O)Nc1ccc(C(N)=O)cc1 (stereo not drawn) | 195 to 197 °C |
| CC(C)C(=CC(CNC(=O)c1cccnc1)=NO)C(C)[N+](=O)[O-] (stereo not drawn) | 132 to 135 °C |
| O=C(O)C1=Cc2cc(OC(F)(F)F)ccc2OC1C(F)(F)F (stereo not drawn) | 118 to 120 °C |
| CCOc1cc2nc(CCl)nc(Cl)c2cc1OCC | 109 to 112 °C |
| CC12CCC3c4ccc(C(=O)O)cc4CCC3C1CCC2C(=O)c1ccc(F)cc1 (stereo not drawn) | 251 to 254 °C |
| Cn1cc(C2=C(c3cn(-c4ccccc4)c4ccccc34)C(=O)NC2=O)c2ccccc21 | 135 to 137 °C |
| N#CN=C(Nc1ccc(C#N)cc1O)Nc1ccccc1Br | 175 to 176 °C |
| OCC1OC(SCC=Cc2ccccc2)C(O)C(O)C1O (stereo not drawn) | 145 to 146 °C |
| O=C1N(CC2CCCCC2)c2ccccc2C12COc1cc3c(cc12)OCO3 (stereo not drawn) | 153 to 154 °C |
| COc1cccc2c(=O)c(CO)cn(C)c12 | 162 to 167 °C |
| COC(=O)[C@@H]1[C@H](C(C)C)N1S(=O)(=O)c1ccc(C)cc1 (stereo partly drawn) | 52 to 54 °C |
| O=[N+]([O-])c1cnc(Sc2nnc(O)n2C2CCCCC2)s1 | 237 to 239 °C |
| CC(=O)COC1CC2C3CCC4=CC(=O)C=CC4(C)C3(F)C(O)CC2(C)C1(O)C(=O)CCl (stereo not drawn) | 226 to 227 °C |
| Cc1nc2c(OCCCc3ccccc3)cccn2c1CC#N | 143 to 145 °C |
| Cc1cccc(NC(=O)NC(CC(N)=O)C(=O)N(CC(=O)OC(C)(C)C)c2ccccc2)c1 (racemic) | 192 °C |
| CSc1ncc(Br)cn1 | 63 to 65 °C |
| Oc1ccc(-c2cc3c(Br)c(O)cc(Br)c3o2)cc1 | 215 to 217 °C |
| COC(=O)C1=C(C)NC(C)=C(P(=O)(OC)OC)C1c1cccc([N+](=O)[O-])c1 (stereo not drawn) | 221 to 223 °C |
| COC(=O)CCCCc1cc2c(n1-c1ccccc1)CC(O)C2 (stereo not drawn) | 83 to 85.5 °C |
| CC(C)(C)c1cc(OCc2cccc(C(=O)O)c2)cc(C(C)(C)C)c1 | 167 to 169 °C |

| SMILES | melting point |
| --- | --- |
| Cc1oc(-c2ccccc2)nc1COc1ccc(CON=C(CCC(=O)O)c2ccc(Oc3ccccc3)cc2)cc1 | 131 to 132 °C |
| Fc1ccccc1[C@@H]1Cc2cnc(Nc3cccc(CCN4CCNCC4)c3)nc2-c2ccccc21 | 165 to 167 °C |
| O=C(OC1CCN(Cc2cccc([N+](=O)[O-])c2)CC1)c1ccccc1 | 54 to 55 °C |
| CCOC(=O)C1=C(C)Nc2ncn(C(C)C)c(=O)c2C1c1ccccc1F (stereo not drawn) | 178 to 180 °C |
| CC(=O)OCC1OC(n2c(Cl)nc3cc(Br)c(Br)cc32)C(OC(C)=O)C1OC(C)=O (stereo not drawn) | 140 to 142 °C |
| CN1CCN(C(=O)OC2c3ccccc3C(=O)N2c2ccc3ccc(Br)nc3n2)CC1 (stereo not drawn) | 260 °C |
| Cn1nnnc1-c1cn(C)c2cc(C#N)ccc2c1=O | 301 to 303 °C |
| Cc1nnc(Cl)c(-c2c(F)cc(F)cc2F)c1-c1ccc(Cl)nc1 | 182 to 183 °C |
| CC(C)(C)c1nc2cc(N3CCSCC3)c(N=C=S)cc2s1 | 155 to 159 °C |
| FC(F)(F)Oc1ccc2nc(C(F)(F)F)[nH]c2c1 | 158 to 160 °C |
| CC(=O)Nc1ccc(O[C@H]2CCN(C)C[C@H]2c2ccccc2)cc1 (relative stereo) | 174 to 176 °C |
| Cc1nnc(-c2cccc(I)c2)s1 | 86 to 89 °C |
| CC1(CCO)c2ccccc2-c2ccccc21 | 84 to 85 °C |
| CCN(CC)CCOc1cccc2c1c1cc(Cl)ccc1n2Cc1ccccc1 | 96 to 97.5 °C |
| CC(=O)N1CCN=C1Nc1cccc2c1CCCC2 | 142 to 144 °C |
| CNC(=S)Nc1ccccc1 | 113 °C |
| CC(=O)NCc1ccc(CC[N+]2([O-])CCC(C3CCc4ccccc43)CC2)cc1 (stereo not drawn) | 130 to 131 °C |
| CCCCN1C(=O)C2(COc3cc4c(cc32)OCO4)c2ccccc21 (stereo not drawn) | 119 to 120 °C |
| CC(C)c1c[nH]c(S)n1 | 147 to 150 °C |
| CCCCCCOc1cc(C)ccc1C(=O)c1cccc(C(=O)O)c1 | 118 °C |
| COC(=O)Cc1cccc(CCN(C)CCCC(C#N)(c2ccc(OC)c(OC)c2)C(C)C)c1 (stereo not drawn) | 77 to 82 °C |
| CCCCc1nc2c(N)nc3cc(OCc4ccccc4)ccc3c2n1CCOc1ccccc1 | 188 to 189 °C |
| O=C1N(CCCCCl)CCN1C1CCCCC1 | 30 to 35 °C |
| NS(=O)(=O)c1cc2cc(CBr)ccc2s1 | 171 to 173 °C |
| CCOC(=O)c1nn(-c2cccc(Cl)c2)c(=O)c2c1c1ccc(Cl)cc1n2C | 236 to 238 °C |

| SMILES | melting point |
| --- | --- |
| O=C(O)CC1(c2ccc(Cl)c(Cl)c2)CNC(=O)C1 (stereo not drawn) | 191 to 195 °C |
| CCCCCCCCCC(=O)Nc1ccc(S(=O)(=O)Nc2nnc(CC(=O)O)s2)cc1 | 190 to 191 °C |
| COC(=O)C(=O)c1c(F)cc(OCCOc2ccc3ccccc3c2)cc1F | 130 to 131 °C |
| O=c1c2c(Cc3ccccc3C(F)(F)F)n[nH]c2c2cccnc2n1-c1cccc(OC(F)(F)F)c1 | 252 to 255 °C |
| OC1CCc2cnc3c(c21)CCO3 (stereo not drawn) | 130 to 131 °C |
| C#Cc1c(-c2ccc(F)cc2)nn(-c2ccccc2)c1C(C)C | 117 to 118 °C |
| COc1ccc(Cn2c(=O)[nH]c(=O)c3[nH]c(C(C)C)nc32)cc1OC1CCCC1 | 282 to 283 °C |
| Cc1cc2c3c(cc(C)c2[nH]c1=O)CC(C)(CN=[N+]=[N-])O3 (stereo not drawn) | 232 to 234 °C |
| CNS(=O)(=O)c1cc(C(=O)CCCCCl)cc2c1CCC2 | 107 to 109 °C |
| Cc1ccccc1C(=O)NCN1CCN(c2cccc(C#N)c2)CC1 | 156 to 159 °C |
| OC(c1ccnc2cc(Cl)ccc12)C(F)(F)F (stereo not drawn) | 161 °C |
| Cn1c2c(c3cc(F)ccc31)C(=O)CCC2 | 158 °C |
| COc1ccc(CNC(=S)N2C(=O)CC(c3ccc(OC)c(OC4CCCC4)c3)N2C)cc1 (stereo not drawn) | 52 to 55 °C |
| Cc1ccsc1C(Cc1ccccc1N)N(C)C (stereo not drawn) | 75 to 77 °C |
| O=CCC1Cc2ccc(Br)cc2C1=O (racemic) | 84 °C |
| COc1ccc(-c2nc(-c3cccn3CC(=O)O)sc2-c2ccc(OC)cc2)cc1 | 198 to 200 °C |
| COc1ccc(-c2ccccc2C(SCC(=O)c2ccccc2)C(OC(C)=O)C(N)=O)cc1 (stereo not drawn) | 122 to 123 °C |
| N#CC=CC=CC(=O)C(F)(F)F | 123 to 126 °C |
| COc1ccc(C(=O)c2ccccc2F)c(O)c1C | 118 to 120 °C |
| CCCCc1nn2cc(-c3ccccc3)nc2n1Cc1ccc(-c2ccccc2-c2nnn[nH]2)cc1 | > 160 °C |
| C/C(=C\c1ccc(C(=O)N2CCOCC2)cc1)c1ccc2c(c1)C(C)(C)CCC2(C)C | 143 to 144 °C |
| COc1ccc(-c2c(Cl)c(CN3C(=O)CCC3=O)nc3sc4c(c23)CCC(=O)C4(C)C)cc1 | 245 to 246 °C |
| COc1ccc(-c2nc(COc3cccc([N+](=O)[O-])c3)c(C)o2)cc1 | 109 to 111 °C |
